# Measured values published in patent publication US20220331303A1, “USE OF AN OREXIN 2 RECEPTOR AGONIST FOR THE TREATMENT OF EXCESSIVE SLEEPINESS” (Takeda Pharmaceutical Company Limited, priority 2019, published 2022).
# Tested on: sleep-deprived healthy volunteers
# Test: Polysomnography (PSG) of recovery sleep after sleep deprivation in healthy volunteers
# Assay type: in vivo, human
# Experimental: Exploratory objectives in sleep-deprived healthy volunteers were as follows: • 1. To compare the effects of Compound A (LD and HD) and modafinil (300 mg) on promoting wakefulness as measured by MWT. • 2. To determine PK-PD relationships for selected PD measures. • 3. To evaluate PK-BP relationships in BP change after Compound A administration. • 4. To compare various polysomnography (PSG) parameters between Day −1 (predose) and Day 2 (recovery sleep). • 5. To determine whether there is any difference in the PSG parameters on Day 2 (recovery sleep) between Compound A and placebo or modafinil. • 6. To evaluate the continuous electroencephalogram (EEG) obtained during the MWTs for power spectra changes for Compound A (LD and HD) versus placebo, Compound A (LD and HD) versus modafinil, and modafinil versus placebo.
# During the day before dosing on Day 1, participants were administered the KSS at scheduled timepoints. A practice MWT session was performed on Day 1 treatment period 1 (only once during the entire study) to familiarize subjects with the procedures. Study drug was administered in the clinic in the evening on Day 1 of each treatment period. Subjects underwent the MWT and KSS at specified timepoints after the start of the infusion. Subjects were required to stay awake between the MWT tests. Following completion of the IV infusion on Day 2, subjects underwent an additional MWT test. When the final MWT test and cognitive testing were completed, subjects were allowed to sleep (recovery sleep) for approximately 6 hours. PSG recording was collected during this time. Subjects were discharged from the unit after completion on Day 2 with continuing actigraphy upon discharge (to begin on Day −6 before the next treatment period). The interval between each subsequent treatment period was at least 7 days to ensure that the subject's circadian rhythm had returned to a normal cycle. Subject's vital signs, including BP, were monitored during the dosing and testing period. Blood samples for determination of Compound A plasma concentrations were collected at specified timepoints on Days 1 and 2 of each treatment period. Subjects completed the Columbia-Suicide Severity Rating Scale (C-SSRS) during screening, before study drug administration, and before discharge on Day 2 of each treatment period.
# The PSGs assess recovery sleep during the day after the end of the sleep deprivation period. There were no corrections for multiple comparisons. […]
# [1] = HD: Compound A 112 mg, recovery sleep
# [2] = LD: Compound A 44 mg, recovery sleep
compound,measurement,setting,value
"COC(=O)N1CCC[C@H](NS(C)(=O)=O)[C@@H]1CO[C@H]1CC[C@@H](c2ccccc2)CC1 [Compound A, methyl (2R,3S)-3-((methylsulfonyl)amino)-2-(((cis-4-phenylcyclohexyl)oxy)methyl)piperidine-1-carboxylate]",PSG Stage N3 % LS Mean,[1],29.36%
same,PSG Stage N3 % LS Mean Difference vs Placebo Estimate,[1],3.53%
same,Stage N3 Duration LS Mean,LD: Compound A 44 mg,81.05 min
same,Stage N3 Duration LS Mean Difference vs placebo Estimate,LD: Compound A 44 mg,-0.34 min
same,Stage REM % LS Mean,LD: Compound A 44 mg,20.70%
same,Stage REM % LS Mean Difference vs placebo Estimate,LD: Compound A 44 mg,−0.68%
same,Stage REM Duration LS Mean,LD: Compound A 44 mg,60.76 min
same,Stage REM Duration LS Mean Difference vs placebo Estimate,LD: Compound A 44 mg,-5.80 min
same,Stage Wake % LS Mean,LD: Compound A 44 mg,10.65%
same,Stage Wake % LS Mean Difference vs placebo Estimate,LD: Compound A 44 mg,0.35%
same,Stage Wake Duration LS Mean,LD: Compound A 44 mg,35.55 min
same,Stage Wake Duration LS Mean Difference vs placebo Estimate,LD: Compound A 44 mg,0.02 min
same,Total Arousal Index LS Mean,LD: Compound A 44 mg,10.07
same,Total Arousal Index LS Mean Difference vs placebo Estimate,LD: Compound A 44 mg,0.08
same,Total Arousal LS Mean,LD: Compound A 44 mg,47.56
same,Total Arousal LS Mean Difference vs placebo Estimate,LD: Compound A 44 mg,−2.85
same,Total Leg Movements LS Mean,LD: Compound A 44 mg,12.59
same,Total Leg Movements LS Mean Difference vs placebo Estimate,LD: Compound A 44 mg,−6.35
same,Total Leg Movements N1 LS Mean,LD: Compound A 44 mg,1.60
same,Total Leg Movements N1 LS Mean Difference vs placebo Estimate,LD: Compound A 44 mg,0.34
same,Total Leg Movements N2 LS Mean,LD: Compound A 44 mg,6.04
same,Total Leg Movements N2 LS Mean Difference vs placebo Estimate,LD: Compound A 44 mg,−2.51
same,Total Leg Movements N3 LS Mean,LD: Compound A 44 mg,0.65
same,Total Leg Movements N3 LS Mean Difference vs placebo Estimate,LD: Compound A 44 mg,−0.97
same,Total Leg Movements REM LS Mean,LD: Compound A 44 mg,3.44
same,Total Leg Movements REM LS Mean Difference vs placebo Estimate,LD: Compound A 44 mg,−2.31
same,Total Leg Movements with Awakening LS Mean,LD: Compound A 44 mg,0.68
same,Total Leg Movements with Awakening LS Mean Difference vs placebo Estimate,LD: Compound A 44 mg,−1.07
same,Total Leg Movements with Microarous LS Mean,LD: Compound A 44 mg,2.35
same,Total Leg Movements with Microarous LS Mean Difference vs placebo Estimate,LD: Compound A 44 mg,0.34
same,Total Leg Movements with Resp Event LS Mean,LD: Compound A 44 mg,0.16
same,Total Leg Movements with Resp Event LS Mean Difference vs placebo Estimate,LD: Compound A 44 mg,0.11
same,Total Leg Movements without Arousal LS Mean,LD: Compound A 44 mg,10.21
same,Total Leg Movements without Arousal LS Mean Difference vs placebo Estimate,LD: Compound A 44 mg,−6.71
same,Total Recording Time LS Mean,LD: Compound A 44 mg,342.50 min
same,Total Recording Time LS Mean Difference vs placebo Estimate,LD: Compound A 44 mg,-14.40 min
same,Total Sleep Time LS Mean,LD: Compound A 44 mg,291.34 min
same,Total Sleep Time LS Mean Difference vs Placebo Estimate,LD: Compound A 44 mg,-18.13 min
same,Wake After Persistent Sleep LS Mean,LD: Compound A 44 mg,33.78 min
same,Wake After Persistent Sleep LS Mean Difference vs placebo Estimate,LD: Compound A 44 mg,-0.85 min
same,Wake After Sleep Onset LS Mean,LD: Compound A 44 mg,35.55 min
same,Wake After Sleep Onset LS Mean Difference vs placebo Estimate,LD: Compound A 44 mg,0.02 min
same,PSG Awakenings LS Mean,[2],4.74
same,PSG Awakenings LS Mean Difference vs Placebo Estimate,[2],0.25
same,PSG N1 Latency LS Mean,[2],3.60 min
same,PSG N1 Latency LS Mean Difference vs Placebo Estimate,[2],-1.76 min
same,PSG N2 Latency LS Mean,[2],3.91 min
same,PSG N2 Latency LS Mean Difference vs Placebo Estimate,[2],-2.74 min
same,PSG N3 Latency LS Mean,[2],21.94 min
same,PSG N3 Latency LS Mean Difference vs Placebo Estimate,[2],-5.33 min
same,PSG Per. Slp LS Mean,[2],5.96 min
same,PSG Per. Slp LS Mean Difference vs Placebo Estimate,[2],-0.91 min
same,PSG REM Latency LS Mean,[2],75.10 min
same,PSG REM Latency LS Mean Difference vs Placebo Estimate,[2],20.16 min
same,PSG Sleep Efficiency LS Mean,[2],84.95%
same,PSG Sleep Efficiency LS Mean Difference vs Placebo Estimate,[2],−1.77%
same,PSG Sleep Onset LS Mean,[2],2.71 min
same,PSG Sleep Onset LS Mean Difference vs Placebo Estimate,[2],-1.28 min
same,PSG Spontaneous Arousal Index LS Mean,[2],8.58
same,PSG Spontaneous Arousal Index LS Mean Difference vs Placebo Estimate,[2],−0.36
same,PSG Spontaneous Arousal LS Mean,[2],40.21
same,PSG Spontaneous Arousal LS Mean Difference vs Placebo Estimate,[2],−4.86
same,PSG Stage N1 % LS Mean,[2],5.69%
same,PSG Stage N1 % LS Mean Difference vs Placebo Estimate,[2],−0.39%
same,PSG Stage N1 Duration LS Mean,[2],16.29 min
same,PSG Stage N1 Duration LS Mean Difference vs Placebo Estimate,[2],-2.12 min
same,PSG Stage N2 % LS Mean,[2],46.04%
same,PSG Stage N2 % LS Mean Difference vs Placebo Estimate,[2],−0.66%
same,PSG Stage N2 Duration LS Mean,[2],134.21 min
same,PSG Stage N2 Duration LS Mean Difference vs Placebo Estimate,[2],-9.86 min
same,PSG Stage N3 % LS Mean,[2],27.65%
same,PSG Stage N3 % LS Mean Difference vs Placebo Estimate,[2],1.82%
same,"PSG sleep efficiency, arousals, and total sleep compared with placebo","both Compound A groups (44 and 112 mg), recovery sleep",not different from placebo
